# Experimental data as given in patent US5679663A, “Pharmaceutical compounds” (priority 1996, dated 1997).
# Where a name gives a salt, the structure may show the parent alone.
# Assays:
# Solubility = details: for solubility compared with the compound described under (A): relative to Example 5(A)
# [1] = tested on: scopolamine induced amnesia; assay: Scopolamine induced amnesia, passive avoidance test; type: in vivo, Mongolian Gerbil
# Description: (§1) The protective effect of the compound CAPAH was studied in relation to both scopolamine and hypoxia induced amnesia in gerbils by the passive avoidance test.
# (§2) Gerbils underwent a training schedule of "passive avoidance", i.e. they learned not to enter a dark compartment into which an electric shock was delivered.
# Scopolamine Induced Amnesia
# Gerbils received an intra-peritoneal injection of scopolamine (0.5 mg/kg) 30 minutes before the training procedure. The ability of CAPAH, given prior to scopolamine, to prevent the induced amnesia was determined.
# (§3) The gerbils were trained as described above in a step-down type passive avoidance apparatus (Model E13-08, Coulbourn Instruments, Lehigh Valley, USA), divided into a safe part and a grill part. […] Training of the passive avoidance was carried out for 5 minutes. The gerbils were placed on the safety platform and received a series of mild electric shocks, […] (shock sensitivity determined for each batch of gerbils) for 3 seconds every 6 seconds when it stepped off the grill. Gerbils were returned to the apparatus for testing 24 hours later and their step-down latencies to the grill floor (recall latency) were recorded (maximum 60 seconds).
# (§4) In both these series of experiments Piracetam was used as a control.
# [2] = tested on: haloperidol-induced catalepsy; assay: Impact on catalepsy caused by haloperidol; type: in vivo; details: 100 mg/kg
# Description: Catalepsy was evaluated from the animal's ability to maintain an awkward posture (hind legs placed on a 30 mm high pedestal and forelegs on the bench) for 90 seconds at intervals of 10, 60 and 120 minutes after the latest administration of haloperidol.
# [3] = tested on: hypoxia induced by direct lack of oxygen; assay: Lifetime following hypoxia induced by direct lack of oxygen; type: in vivo, white mice
# Description: (§5) The potential of CAPAH to provide neuroprotection following a stroke was illustrated by its anti-hypoxic properties in mice using both hypoxia induced directly by lack of oxygen in the atmosphere and hypoxia induced by sodium nitrite injection.
# White mice in groups of six with a standard weight of 18 grams were placed in hermetically sealed jars and the lifetime of the animals was recorded.
# [4] = tested on: hypoxia induced by sodium nitrite; assay: Lifetime following hypoxia induced by sodium nitrite; type: in vivo, white mice; details: 90 mg/kg i.p.
# Description: as §5
# White mice in groups of eight with a weight in the range of 18 to 21 grams were injected subcutaneously with 300 mg/kg of aqueous sodium nitrite and their subsequent lifetime was recorded. A control group of mice received no additional pre-treatment but a second group received a prior intraperitoneal injection of 90 mg/kg CAPAH.
# [5] = tested on: mice immobilization (behavioural despair); assay: Behavioural despair model (duration of immobilization, swimming); type: in vivo, mice (tetrahybrids SVA); details: 90 mg/kg; for Duration of mice immobilization, behavioural despair test: 6 minutes of observation
# Description: In this test, mice (tetrahybrids SVA) were obliged to swim in a limited space, presented as a cylindrical vessel which was 15 cm high containing a water level of 6 cm maintained at a temperature of 21° C. A "slowing down" of swimming activity was observed. This "slowing down" is regarded to reflect the state of lowering of spirits and increasing despair of the mice. The slowing down is diminished by anti-depressants.
# CAPAH was investigated in acute and chronic application (for 10 days). The mean duration of animal immobility for 6 minutes of observation was estimated in seconds.
# CAPAH was injected in a dose of 90 mg/kg 40 minutes before the experiment.
# [6] = tested on: L-dopa induced hypothermia and motor activity; assay: Interaction with L-dopa (hypothermia, depression and reduction of motor activity); type: in vivo; details: 100 mg/kg; L-dopa 150 mg/kg, mice
# Description: L-3,4-dihydroxyphenylalanine (L-dopa) was administered in a 150 mg/kg dose, which induces hypothermia, depression and reduction of motor activity.
# [7] = tested on: learned helplessness (avoidance reaction); assay: Learned helplessness model (avoidance reaction, shuttle chamber); type: in vivo, mice; details: for Average latence of avoidance period / Percent of nonavoidance from total test number / Average latence of avoidable period: CAPAH 90 mg/kg, melipramine 7 mg/kg, i.p.
# Description: The phenomenon of learned helplessness is that exposure to uncontrollable stress produces deficits in subsequent learning tasks. The preliminary non-avoidable aversive phase of the test was carried out in dark chambers (30 cm×15 cm×15 cm) with electrodes in the floor. Mice were placed into the chambers individually where they received a number of stimuli (150 mkA, 60 Hz) for 6 seconds with 30 second intervals. Exposure lasted for 40 minutes. 24 hours later the animals were tested in a "shuttle" chamber which consisted of two compartments with the electrode floor connected by the opening situated 1 cm above the base. The entrance to the neighbouring compartment was blocked by a door operated automatically. Stimulation (150 mkA) was directed in turn to each compartment with 30 second intervals and 4 seconds lag. After 10 sessions the door was closed and electric current stopped. The average summary latent time of avoidance was estimated as well as the total number of non-fulfilled reactions.
# Experiments were carried out in 40 male […] weighing 18-20 g. Melipramine was used as a standard preparation. Preparations were injected intraperitoneally in doses: CAPAH--90 mg/kg, melipramine--7 mg/kg. Control animals received an equal quantity of distilled water. In the first control group (control 1) mice were not exposed to non-avoidable aversive stimulations; in the second control group (control 2) the animals were exposed to the preliminary non-avoidable aversive influence but without drug preparations.
# [8] = Toxicity (LD100, LD50, MTD); type: in vivo; details: for LD50 / MTD: in vivo; for LD50 / MTD / LD100: species and route not given; for MTD: read-out: MTD (maximum tolerance dose)
# [9] = tested on: apomorphine-induced stereotypy; assay: Apomorphine-induced stereotypy in rats; type: in vivo; details: 100 mg/kg, 40 min before apomorphine 20 mg/kg s.c.
# Description: (§6) Stereotypy in rats was induced by subcutaneous administration of 20 mg/kg of apomorphine. The total duration of the stereotypy episode was evaluated and also the intensity of individual components thereof (licking, gnawing, sniffing). CAPAH was administered 40 minutes before the apomorphine as a 90 mg/kg dose to the mice and 100 mg/kg dose to the rats.
# [10] = Pharmacological investigation (central nervous system); details: in vivo
# hypoxia induced amnesia = assay: Hypoxia induced amnesia, passive avoidance test; type: in vivo, Mongolian Gerbil
# Text: as §1, §2
# The gerbils were trained as described above. To produce a hypoxic environment a gas-mixture (4% oxygen, 96% nitrogen) was blown through a plastic box (12 l/min). Immediately after the training period the gerbil was put into this hypoxic environment and removed when gasping was shown (maximum stay in the hypoxic box is 40 seconds).
# as §3, §4
# [11] = tested on: apomorphine-induced hypothermia; assay: Apomorphine-induced hypothermia in mice; type: in vivo; details: 90 mg/kg, 40 min before apomorphine 25 mg/kg s.c.
# Description: The effect of CAPAH on apomorphine-induced hypothermia and stereotypy was evaluated. The hypothermia was induced by subcutaneously injecting mice with 25 mg/kg of apomorphine. The change in skin temperature was recorded by a TPEM-1 thermometer immediately before injecting with apomorphine and also 60 and 120 minutes after the administration.
# as §6
# [12] = U.S. Pat. Nos. 4,162,264 and 4,162,311; cited from earlier work
structure (smiles),measurement,setting,value
CN(C)c1ccc(P(=O)(CC(=O)NN)OCCCl)cc1 (stereo not drawn) [CAPAH hydrochloride],water solubility,Solubility; water,high water solubility
"CN(C)c1ccc(P(=O)(CC(=O)NN)OCCCl)cc1 (stereo not drawn) [CAPAH, (2-chloroethoxy)(p-N,N-dimethylaminophenyl)phosphinylacetohydrazide]","Latency (sec ± SEM), scopolamine induced amnesia",[1]; 1 mg/kg,35 ± 17 s
same,"Latency (sec ± SEM), scopolamine induced amnesia",[1]; 10 mg/kg,52 ± 21 s
same,"Latency (sec ± SEM), scopolamine induced amnesia",[1]; 30 mg/kg,36 ± 17 s
same,"Latency (sec ± SEM), scopolamine induced amnesia",[1]; 100 mg/kg,49 ± 16 s
same,"Latency (sec ± SEM), scopolamine induced amnesia",[1]; 300 mg/kg,76 ± 30 s
same,memory enhancement in scopolamine-induced amnesia,[1]; lower doses (below 300 mg/kg),a trend towards memory enhancement
same,reversal of scopolamine-induced amnesia,[1]; only at 300 mg/kg,Statistically significant reversal
same,dopamine-mimetic activity,[2],reveals dopamine-mimetic activity
same,effect on haloperidol induced catalepsy,[2]; haloperidol 5 mg/kg hypodermic injection,reduces haloperidol induced catalepsy
same,"Lifetime (± deviation), hypoxia by direct lack of oxygen","[3]; 30 mg/kg i.p., second experiment",16.4 ± 1.2 min
same,"Lifetime (± deviation), hypoxia by direct lack of oxygen","[3]; 45 mg/kg i.p., first experiment",18.8 ± 1.1 min
same,"Lifetime (± deviation), hypoxia by direct lack of oxygen","[3]; 90 mg/kg i.p., first experiment",17.0 ± 0.1 min
same,"effect on lifetime, hypoxia by direct lack of oxygen",[3]; 90 or 45 mg/kg,extension of lifetime
same,"effect on lifetime, hypoxia induced by sodium nitrite",[4],extension of lifetime
same,"Lifetime (± deviation), hypoxia induced by sodium nitrite",[4]; sodium nitrite 300 mg/kg s.c.,16.9 ± 1.0 min
same,"duration of ""slowing down"" (anti-depressant activity)",[5]; repeated application,"lessens the duration of ""slowing down"""
same,"Duration of mice immobilization, behavioural despair test",[5]; repeated injection (10 days),177.5 ± 17.5
same,"Duration of mice immobilization, behavioural despair test","[5]; single injection, 40 min before",210 ± 22.5 s
same,activity on L-dopa induced effects,[6],no activity
same,"anti-depressant effects, learned helplessness","[7]; 90 mg/kg, single and chronic treatment",marked anti-depressant effects
same,Average latence of avoidance period,[7]; 6-fold injection,9.0 ± 0.7
same,Percent of nonavoidance from total test number,[7]; 6-fold injection,2%
same,Average latence of avoidable period,[7]; 12-fold injection,7.9 ± 0.7
same,Percent of nonavoidance from total test number,[7]; 12-fold injection,1.3%
same,Average latence of avoidable period,[7]; single injection,12.1 ± 1.5
same,Percent of nonavoidance from total test number,[7]; single injection,19%
same,interval between the maximum tolerance dose (MTD) and the LD100,[8]; comparison with DPAH,significantly greater interval
same,toxicity compared with DPAH,[8]; comparison with DPAH,less toxic
same,LD50,[8],960 ± 35 mg/kg
same,MTD,[8],700 mg/kg
same,LD100,[8],1200 mg/kg
same,effect on apomorphine-induced stereotypy,[9],no effect
same,effect on the central nervous system,[10],selectively affects the central nervous system
same,"Latency (sec ± SEM), hypoxia induced amnesia",hypoxia induced amnesia; 1 mg/kg,135 ± 21 s
same,"Latency (sec ± SEM), hypoxia induced amnesia",hypoxia induced amnesia; 10 mg/kg,111 ± 25 s
same,"Latency (sec ± SEM), hypoxia induced amnesia",hypoxia induced amnesia; 30 mg/kg,71 ± 28 s
same,"Latency (sec ± SEM), hypoxia induced amnesia",hypoxia induced amnesia; 100 mg/kg,119 ± 23 s
same,toxicity of the dose,hypoxia induced amnesia; 300 mg/kg (1/3 DL50),toxic
same,"Latency (sec ± SEM), hypoxia induced amnesia",hypoxia induced amnesia; 300 mg/kg,20 ± 8 s
same,activity in hypoxia induced amnesia test,"hypoxia induced amnesia; doses 1, 10, 100 mg/kg",active
same,activity in hypoxia induced amnesia test,"hypoxia induced amnesia; doses 30, 300 mg/kg",Activity was absent
same,effect on apomorphine-induced hypothermia,[11],no effect
"NNC(=O)CP(=O)(c1ccccc1)c1ccccc1 [DPAH, diphenylphosphinylacetohydrazide, reference compound]",properties of DPAH,[12],"vegetropic, anti-epileptic and anti-serotonin properties"
same,LD50,[8],315 ± 24.8 mg/kg
same,MTD,[8],200 mg/kg
same,LD100,[8],500 mg/kg
"CC=CC=NNC(=O)CP(=O)(OCCCl)c1ccc(N(C)C)cc1 (stereo not drawn) [Example 5(A), N^β -(but-2-enylidene)-(2-chloroethoxy)-(p-N,N-dimethylaminophenyl)phosphinylacetohydrazide]",solubility in dimethyl sulphoxide and other aprotic polar solvents,Solubility; dimethyl sulphoxide and other aprotic polar solvents,soluble in dimethyl sulphoxide and other aprotic polar solvents
same,solubility in most organic solvents and in water,Solubility; most organic solvents and water,poorly soluble
"CN(C)CCCN1c2ccccc2CCc2ccccc21 [Melipramine, reference compound]",Average latence of avoidance period,[7]; 6-fold injection,11.8 ± 1.5
same,Percent of nonavoidance from total test number,[7]; 6-fold injection,29%
same,Average latence of avoidable period,[7]; 12-fold injection,9.2 ± 1.1
same,Percent of nonavoidance from total test number,[7]; 12-fold injection,11%
same,Average latence of avoidable period,[7]; single injection,13.5 ± 1.8
same,Percent of nonavoidance from total test number,[7]; single injection,43%
CN(C)c1ccc(P(=O)(CC(=O)NN=CC=Cc2ccccc2)OCCCl)cc1 (stereo not drawn) [N^β -cinnamaylidene],solubility compared with the compound described under (A),Solubility,similar
CN(C)c1ccc(P(=O)(CC(=O)NN=Cc2cccc([N+](=O)[O-])c2)OCCCl)cc1 (stereo not drawn) [N^β -m-nitrobenzylidene],solubility compared with the compound described under (A),Solubility,similar
CN(C)c1ccc(P(=O)(CC(=O)NN=Cc2ccccc2O)OCCCl)cc1 (stereo not drawn) [N^β -o-hydroxybenzylidene],solubility compared with the compound described under (A),Solubility,similar
"NC(=O)CN1CCCC1=O [Piracetam, reference compound]","Latency (sec ± SEM), scopolamine induced amnesia",[1]; 100 mg/kg,73 ± 24 s
same,"Latency (sec ± SEM), hypoxia induced amnesia",hypoxia induced amnesia; 100 mg/kg,107 ± 19 s
